# Measured values: patent publication US6586191B2 (priority 1996, dated 2003)
# Peptide text beside a SMILES is read from it.
# Legend:
# rat GALR1 receptor [1] = biological target: T1, rat GALR1 receptor (Rattus norvegicus, UniProt Q62805); assay: biochemical
# T1 sequence (Q62805 1-346): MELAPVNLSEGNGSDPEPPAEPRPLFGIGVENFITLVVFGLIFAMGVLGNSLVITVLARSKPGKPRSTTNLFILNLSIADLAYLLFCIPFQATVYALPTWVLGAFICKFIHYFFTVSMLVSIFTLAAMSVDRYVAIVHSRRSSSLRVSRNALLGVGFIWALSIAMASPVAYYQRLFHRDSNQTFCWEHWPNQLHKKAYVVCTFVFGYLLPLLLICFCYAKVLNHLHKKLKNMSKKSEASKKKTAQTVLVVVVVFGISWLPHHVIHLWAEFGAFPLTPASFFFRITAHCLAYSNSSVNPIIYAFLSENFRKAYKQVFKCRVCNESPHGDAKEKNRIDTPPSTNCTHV
# rat GALR1 receptor [2] = biological target: T1, rat GALR1 receptor; assay type: cell-based; design: expressed in transfected cells; host or cells: COS-7 (transient); details: for fold less potent than porcine galanin in the rat GalR1 cAMP assay: LM(tk-) rat GALR1
# rat GALR2 receptor [3] = biological target: T2, rat GALR2 receptor (Rattus norvegicus, UniProt O08726); assay: arachidonic acid release in CHO cells stably transfected with rat GALR2 (C-rGalR2-79); assay type: cell-based; design: expressed in transfected cells
# T2 sequence (O08726 1-372): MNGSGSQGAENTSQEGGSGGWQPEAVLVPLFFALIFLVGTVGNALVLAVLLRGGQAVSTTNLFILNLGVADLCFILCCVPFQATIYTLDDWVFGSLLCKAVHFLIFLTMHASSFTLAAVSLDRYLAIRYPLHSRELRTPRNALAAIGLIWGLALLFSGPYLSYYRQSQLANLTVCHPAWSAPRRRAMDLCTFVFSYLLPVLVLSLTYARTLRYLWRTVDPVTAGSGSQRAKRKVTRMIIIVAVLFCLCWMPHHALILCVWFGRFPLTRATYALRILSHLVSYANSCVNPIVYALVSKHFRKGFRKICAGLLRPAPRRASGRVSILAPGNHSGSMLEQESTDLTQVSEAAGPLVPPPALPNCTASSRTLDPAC
# Protocol: The labeled cells were washed three times with 200 ul HAM's F-12. The wells were then filled with medium (200 uL) and the assay was initiated with the addition of peptides or buffer (22 uL). Cells were incubated for 30 min at 37° C., 5% CO2. Supernatants were transferred to a microtiter plate and evaporated to dryness at 75° C. in a vacuum oven. Samples were then dissolved and resuspended in 25 uL distilled water. Scintillant (300 uL) was added to each well and samples were counted for ^3H in a Trilux plate reader. Data were analyzed using nonlinear regression and statistical techniques available in the GraphPAD Prism package (San Diego, Calif.).
# human GALR2 receptor = biological target: T3, human GALR2 receptor (Homo sapiens, UniProt O43603); assay: MAP kinase phosphorylation (western blot) in CHO cells expressing human GALR2; assay type: cell-based; details: CHO human GALR2, 10 minutes, human galanin (10 μM)
# T3 construct: To obtain a full-length hGALR2 clone, superpools of a human heart cDNA library were screened by PCR; expressed in transfected cells
# T3 sequence (O43603 1-387): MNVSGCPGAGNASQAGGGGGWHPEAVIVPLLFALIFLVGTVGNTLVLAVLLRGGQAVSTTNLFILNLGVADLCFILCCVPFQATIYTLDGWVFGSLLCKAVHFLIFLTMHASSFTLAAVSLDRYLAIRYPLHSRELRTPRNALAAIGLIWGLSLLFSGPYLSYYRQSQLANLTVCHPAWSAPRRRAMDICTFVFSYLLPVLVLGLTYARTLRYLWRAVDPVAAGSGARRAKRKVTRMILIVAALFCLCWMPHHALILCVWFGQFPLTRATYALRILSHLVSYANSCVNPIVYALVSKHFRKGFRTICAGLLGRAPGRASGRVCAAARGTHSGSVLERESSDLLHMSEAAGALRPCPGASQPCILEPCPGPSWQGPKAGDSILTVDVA
# Protocol: (§1) CHO cells expressing either the rat GALR2 receptor or the human GALR2 receptor were plated at ˜50% confluence into well-plates and grown in culture with fetal bovine serum reduced to 0.5% for 2 days. Fresh medium was exchanged for old and then aspirated after 2 hrs. […] Cells were washed with phosphate buffered saline and lysed in 100 uL Laemmli sample buffer (Bio-Rad) containing 5% β-mercaptoethanol. Cell lysate was scraped off the plate, transferred to a microfuge tube on ice, and sonicated for 10-15 seconds. Samples were heated at 100° C. for 3-5 minutes. Insoluble material was collected by centrifugation at 10,000×g for 5 min. Supernatant (20 μL/lane) was loaded onto a 4-20% polyacrylamide Bio-Rad Ready-Gel (10×10 cm) together with a phospho-MAP kinase protein standard (New England BioLabs) and molecular weight markers. […] The phospho-MAP kinase complex was detected by chemiluminescence using Lumiglow reagent (New England BioLabs) and Kodak X-Omat film, with exposure times ranging from 10 to 120 seconds.
# (§2) Another functional assay relies on the fact that MAP kinase phosphorylation precedes the activation of phospholipase A2. We tested whether galanin-dependent activation of GALR2 could be monitored by changes in MAP kinase phosphorylation. […]
# rat GALR2 receptor [4] = biological target: T2, rat GALR2 receptor; assay: MAP kinase phosphorylation (western blot) in CHO cells expressing rat GALR2; assay type: cell-based; design: expressed in transfected cells; details: CHO rat GALR2, 10 minutes, human galanin (10 μM)
# Protocol: as §1, §2
# [5] = test system: galanin binding sites in brain, spinal cord, pancreatic islets and cell lines, gastrointestinal smooth muscle; details: read-out: affinity of high-affinity galanin binding sites; several mammalian species and tissues; cited from earlier work
# [6] = test system: [125I]galanin binding sites in rat brain; assay: galanin receptor autoradiography, displacement of [125I]galanin from rat brain tissue sections; details: 5 μM
# Protocol: Male Sprague-Dawley rats (Charles River, Wilmington, Mass.) were euthanized using CO2, decapitated, and their brains immediately removed and frozen on dry ice. Tissue sections were cut at 20 μm using a cryostat and thaw mounted onto gelatin coated slides. Tissues were preincubated in two 10 minute changes of 50 mM Tris-HCl buffer pH 7.4, containing 5 mM MgSO4 and 2 mM EGTA (Sigma). […] After incubation, tissues were dipped twice in ice-cold Tris-HCl buffer (40° C.), followed by a 5 minute wash in ice-cold Tris-HCl buffer (4° C.), then dipped twice in ice-cold deionized water to remove the salts. Sections were placed in X-ray cassettes and apposed to Dupont Cronex MRF 34 Film for 5 days. Films were developed using a Kodak M35A Processor.
# rat GALR2 receptor [7] = biological target: T2, rat GALR2 receptor; assay: voltage clamp currents in Xenopus oocytes injected with rGalR2 mRNA; assay type: cell-based; design: expressed in transfected cells; details: 100-1000 nM, oocytes injected with 5-50 pg rGalR2 mRNA, holding potential -80 mV
# rat GALR2 receptor [8] = biological target: T2, rat GALR2 receptor; assay: GTPgamma35S binding to membranes of cells transfected with rat GalR2; assay type: biochemical; design: expressed in transfected cells; details: 1 μM peptide, n=3
# Protocol: Membranes from cells transfected with the rat GalR2 receptor were suspended in assay buffer (50 mM Tris, 100 mM NaCl, 5 mM MgCl2, pH 7.4) supplemented with 0.1% BSA, 0.1% bacitracin and 10 μM GDP. Membranes were incubated on ice for 20 minutes, transferred to a 96-well Millipore microtiter GF/C filter plate and mixed with GTPγ^35S (250,000 cpm/sample, specific activity ˜1000 Ci/mmol) plus or minus GTPγS (final concentration=100 μM). Final membrane protein concentration=90 μg/mL. […] Samples collected in the filter plate were treated with scintillant and counted for ^35S in a Trilux (Wallac) liquid scintillation counter.
# The signal transduction pathway outlined for rat GalR2 allows for the development of functional assays other than inositol phosphate, calcium, and arachidonic acid determination. One such assay relies on the fact that binding of GTP to a G-protein precedes agonist-dependent activation of phospholipase C. we examined whether galanin-dependent activation of GALR2 could be monitored by the binding of GTPγ^35S to membranes from stably transfected cells.
# rat GALR2 receptor [9] = biological target: T2, rat GALR2 receptor; assay: intracellular calcium mobilization (Fura-2) in cells transfected with rat GALR2; assay type: cell-based; design: expressed in transfected cells
# Protocol: The intracellular free calcium concentration may be measured by microspectroflourometry using the fluorescent indicator dye Fura-2/AM (Bush et al. 1991). Stably transfected cells are seeded onto a 35 mm culture dish containing a glass coverslip insert. Cells are washed with HBS and loaded with 100 μL of Fura-2/AM (10 μM) for 20 to 40 min. After washing with HBS to remove the Fura-2/AM solution, cells are equilibrated in HBS for 10 to 20 min. Cells are then visualized under the 40× objective of a Leitz Fluovert FS microscope and fluorescence emission is determined at 510 nm with excitation wavelengths alternating between […]. Raw fluorescence data are converted to calcium concentrations using standard calcium concentration curves and software analysis techniques.
compound,measurement,setting,value
"CC(C)C[C@H](NC(=O)[C@H](CC(C)C)NC(=O)[C@@H](Cc1c[nH]c2ccccc12)NC(=O)[C@H](Cc1ccccc1)NC(=O)[C@@H](Cc1c[nH]c2ccccc12)NC(=O)[C@H](CCC(N)=O)NC(=O)[C@H](CCC(N)=O)NC(=O)[C@@H]1CCCN1C(=O)[C@H](CCCCN)NC(=O)[C@@H]1CCCN1C(=O)[C@@H](CCCNC(=N)N)NC(=O)[C@@H]1CCCN1C(=O)CNC(=O)[C@H](CC(C)C)NC(=O)[C@H](CC(C)C)NC(=O)[C@H](Cc1ccc(O)cc1)NC(=O)CNC(=O)[C@H](C)NC(=O)[C@H](CO)NC(=O)[C@H](CC(N)=O)NC(=O)[C@H](CC(C)C)NC(=O)[C@@H](NC(=O)[C@H](Cc1c[nH]c2ccccc12)NC(=O)CN)[C@@H](C)O)C(N)=O [Peptide C7, C7] (HELM PEPTIDE1{G.W.T.L.N.S.A.G.Y.L.L.G.P.[dR].P.K.P.Q.Q.[dW].F.[dW].L.L.[am]}$$$$V2.0; N-terminus and C-terminus assumed)",Ki,rat GALR1 receptor [1],16.2 nM
same,EC50,rat GALR1 receptor [2]; read-out: LM(tk-) Rat GALR1 cAMP assay EC50,0.52 nM
CC[C@H](C)[C@H](NC(=O)[C@H](C)NC(=O)[C@H](Cc1c[nH]cn1)NC(=O)[C@@H]1CCCN1C(=O)CNC(=O)[C@H](CC(C)C)NC(=O)[C@H](CC(C)C)NC(=O)[C@H](Cc1ccc(O)cc1)NC(=O)CNC(=O)[C@H](C)NC(=O)[C@H](CO)NC(=O)[C@H](CC(N)=O)NC(=O)[C@H](CC(C)C)NC(=O)[C@@H](NC(=O)[C@H](Cc1c[nH]c2ccccc12)NC(=O)CNC(=O)[C@H](CCCNC(=N)N)NC(=O)[C@H](CCCCN)NC(=O)[C@H](CCC(=O)O)NC(=O)[C@H](CCCCN)NC(=O)[C@@H](NC(=O)[C@@H]1CCCN1C(=O)[C@@H](N)CO)C(C)C)[C@@H](C)O)C(=O)N[C@@H](CC(=O)O)C(=O)N[C@@H](CC(N)=O)C(=O)N[C@@H](Cc1c[nH]cn1)C(=O)N[C@@H](CCCNC(=N)N)C(=O)N[C@@H](CO)C(=O)N[C@@H](Cc1ccccc1)C(=O)N[C@@H](Cc1c[nH]cn1)C(=O)N[C@@H](CC(=O)O)C(=O)N[C@@H](CCCCN)C(=O)N[C@@H](Cc1ccc(O)cc1)C(=O)NCC(=O)N[C@@H](CC(C)C)C(=O)N[C@@H](C)C(N)=O [porcine galanin (−7) to (+29)],fold less potent than porcine galanin in the rat GalR2 arachidonic acid assay,rat GALR2 receptor [3],3 fold
same,fold less potent than porcine galanin in the rat GalR1 cAMP assay,rat GALR1 receptor [2],350 fold
CC[C@H](C)[C@H](NC(=O)[C@H](C)NC(=O)[C@H](Cc1c[nH]cn1)NC(=O)[C@@H]1CCCN1C(=O)CNC(=O)[C@H](CC(C)C)NC(=O)[C@H](CC(C)C)NC(=O)[C@H](Cc1ccc(O)cc1)NC(=O)CNC(=O)[C@H](C)NC(=O)[C@H](CO)NC(=O)[C@H](CC(N)=O)NC(=O)[C@H](CC(C)C)NC(=O)[C@@H](NC(=O)[C@H](Cc1c[nH]c2ccccc12)NC(=O)CNC(=O)[C@H](CCCNC(=N)N)NC(=O)[C@H](CCCCN)NC(=O)[C@H](CCC(=O)O)NC(=O)[C@H](CCCCN)NC(=O)[C@@H](NC(=O)[C@@H]1CCCN1C(=O)[C@H](CO)NC(=O)CNC(=O)[C@@H](N)CC(C)C)C(C)C)[C@@H](C)O)C(=O)N[C@@H](CC(=O)O)C(=O)N[C@@H](CC(N)=O)C(=O)N[C@@H](Cc1c[nH]cn1)C(=O)N[C@@H](CCCNC(=N)N)C(=O)N[C@@H](CO)C(=O)N[C@@H](Cc1ccccc1)C(=O)N[C@@H](Cc1c[nH]cn1)C(=O)N[C@@H](CC(=O)O)C(=O)N[C@@H](CCCCN)C(=O)N[C@@H](Cc1ccc(O)cc1)C(=O)NCC(=O)N[C@@H](CC(C)C)C(=O)N[C@@H](C)C(N)=O [porcine galanin (−9) to (+29)],fold less potent than porcine galanin in the rat GalR2 arachidonic acid assay,rat GALR2 receptor [3],2 fold
same,fold less potent than porcine galanin in the rat GalR1 cAMP assay,rat GALR1 receptor [2],400 fold
Human galanin,phosphorylated MAP kinase levels,human GALR2 receptor,increase
same,phosphorylated MAP kinase levels,rat GALR2 receptor [4],increase
[^125I]porcine galanin,Kd,[5],0.5 to 1 nM
porcine galanin (1-29),displacement of [125I]galanin binding from rat brain tissue sections,[6],complete displacement
same,activation of rapid inward currents (oocytes responding),rat GALR2 receptor [7],36 of 46
same,binding of GTPγ35S in presence of peptide,"rat GALR2 receptor [8]; C-rGALR2-79 membranes, without peptide 8,014±113 cpm","10,292±104 cpm"
same,binding of GTPγ35S in presence of peptide,"rat GALR2 receptor [8]; L-rGalR2I-4 membranes (intronless), without peptide 27,545±504 cpm","29,011±526 cpm"
same,effect on intracellular calcium levels,rat GALR2 receptor [9]; COS-7 cells transfected with rat GALR2 cDNA,no effect
rat galanin,increase of intracellular free [Ca+2] (Δ[Ca+2]),"rat GALR2 receptor [9]; 1 μM peptide, C-rGALR2-79, n=9, not in untransfected cells",310 ± 70 nM
